Assay results published in PMC4682634 (PLoS ONE, 2015).

Molecular target: T1, endogenous BK channel (Rattus norvegicus, UniProt Q62976)
T1 construct: gene Kcnma1; endogenous BK in A7r5 smooth muscle cells
Experiment: whole-cell patch-clamp, paxilline-sensitive current density in A7r5 cells
Assay type: cell-based

T1 sequence (Q62976 whole entry): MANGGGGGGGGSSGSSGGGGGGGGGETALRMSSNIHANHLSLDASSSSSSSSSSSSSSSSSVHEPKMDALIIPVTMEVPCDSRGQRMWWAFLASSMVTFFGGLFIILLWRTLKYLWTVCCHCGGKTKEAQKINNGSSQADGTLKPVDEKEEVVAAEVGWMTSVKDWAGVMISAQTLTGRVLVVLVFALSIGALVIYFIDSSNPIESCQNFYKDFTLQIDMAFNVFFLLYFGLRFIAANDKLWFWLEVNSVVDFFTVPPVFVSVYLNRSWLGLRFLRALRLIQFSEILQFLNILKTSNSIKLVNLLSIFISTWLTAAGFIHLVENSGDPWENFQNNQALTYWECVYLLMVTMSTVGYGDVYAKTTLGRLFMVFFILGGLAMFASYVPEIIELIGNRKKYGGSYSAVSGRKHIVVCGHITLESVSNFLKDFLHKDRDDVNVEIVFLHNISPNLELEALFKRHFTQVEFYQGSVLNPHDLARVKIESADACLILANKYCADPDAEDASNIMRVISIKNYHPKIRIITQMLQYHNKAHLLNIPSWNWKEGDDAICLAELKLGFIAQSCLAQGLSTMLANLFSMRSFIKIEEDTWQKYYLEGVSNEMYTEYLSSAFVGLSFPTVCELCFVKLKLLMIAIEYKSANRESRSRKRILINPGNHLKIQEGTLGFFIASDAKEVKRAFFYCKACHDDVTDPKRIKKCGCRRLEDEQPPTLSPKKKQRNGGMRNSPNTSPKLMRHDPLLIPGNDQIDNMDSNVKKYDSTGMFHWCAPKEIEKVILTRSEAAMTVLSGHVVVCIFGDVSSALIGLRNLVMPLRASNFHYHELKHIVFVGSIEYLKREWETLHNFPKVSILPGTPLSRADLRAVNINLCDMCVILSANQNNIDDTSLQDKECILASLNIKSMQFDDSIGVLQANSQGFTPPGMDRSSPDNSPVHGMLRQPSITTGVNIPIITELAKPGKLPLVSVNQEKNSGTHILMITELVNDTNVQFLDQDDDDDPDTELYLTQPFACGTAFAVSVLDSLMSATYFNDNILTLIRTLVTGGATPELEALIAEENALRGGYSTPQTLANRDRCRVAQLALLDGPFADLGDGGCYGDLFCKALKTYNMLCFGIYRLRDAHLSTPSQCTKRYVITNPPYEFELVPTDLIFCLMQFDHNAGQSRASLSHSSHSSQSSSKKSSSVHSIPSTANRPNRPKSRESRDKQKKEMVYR

## COc1cc(/C=C/C(=O)CC(=O)/C=C/c2ccc(O)c(OC)c2)ccc1O [curcumin]
  EC50: 6.93 ± 0.78 µM
